Measurements reported in ChEMBL document CHEMBL1158508, “Molecular modeling study of 4-phenylpiperazine and 4-phenyl-1,2,3,6-tetrahydropyridine derivatives: a new step towards the design of high-affinity 5-HT1A ligands” (Bioorg Med Chem Lett, 2010).

What was measured:
[1] = molecular target: T1, 5-hydroxytryptamine receptor 1A (Homo sapiens, UniProt P08908); test: Inhibition of 5HT1A receptor
T1 sequence (P08908 whole entry): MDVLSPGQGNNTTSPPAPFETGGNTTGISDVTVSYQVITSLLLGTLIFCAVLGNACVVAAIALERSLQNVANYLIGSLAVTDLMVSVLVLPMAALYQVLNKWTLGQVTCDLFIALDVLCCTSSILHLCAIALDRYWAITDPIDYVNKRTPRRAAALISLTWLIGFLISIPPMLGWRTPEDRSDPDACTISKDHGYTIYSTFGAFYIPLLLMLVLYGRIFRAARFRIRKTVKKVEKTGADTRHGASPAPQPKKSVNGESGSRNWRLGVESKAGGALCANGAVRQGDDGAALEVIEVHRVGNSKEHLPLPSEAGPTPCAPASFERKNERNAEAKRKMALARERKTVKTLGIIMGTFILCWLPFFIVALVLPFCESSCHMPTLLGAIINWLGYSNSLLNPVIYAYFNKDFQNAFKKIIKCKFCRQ

[2] = molecular target: 5-hydroxytryptamine receptor 7 (Homo sapiens, UniProt P34969); test: Binding affinity to 5HT7 receptor
5-hydroxytryptamine receptor 7, sequence (P34969 whole entry): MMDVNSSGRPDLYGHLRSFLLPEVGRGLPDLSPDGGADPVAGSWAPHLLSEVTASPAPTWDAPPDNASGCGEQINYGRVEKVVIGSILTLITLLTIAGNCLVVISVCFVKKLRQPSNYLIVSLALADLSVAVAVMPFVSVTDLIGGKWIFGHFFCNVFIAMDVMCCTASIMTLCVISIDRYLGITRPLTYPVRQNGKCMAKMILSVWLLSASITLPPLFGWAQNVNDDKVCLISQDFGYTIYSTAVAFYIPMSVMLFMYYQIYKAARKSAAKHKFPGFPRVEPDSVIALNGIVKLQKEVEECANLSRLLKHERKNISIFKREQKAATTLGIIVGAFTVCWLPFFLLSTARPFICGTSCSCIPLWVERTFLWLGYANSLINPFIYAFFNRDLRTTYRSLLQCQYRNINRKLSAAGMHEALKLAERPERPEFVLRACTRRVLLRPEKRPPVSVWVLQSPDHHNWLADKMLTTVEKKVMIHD

Structure (SMILES)	IC50 [1] [nM]	Ki [2] [nM]
COc1ccc2[nH]cc(CCCCN3CC=C(c4ccccc4)CC3)c2c1	20	–
O=C1Nc2cccc3c2C1(CCCCN1CCN(c2ccccc2)CC1)CCC3 (racemic)	–	2.14
O=C1Nc2cccc3c2C1(CCCCN1CC=C(c2ccccc2)CC1)CCC3 (racemic)	–	3.31
Oc1ccc2[nH]cc(CCCCN3CC=C(c4ccccc4)CC3)c2c1 [ROXINDOLE]	0.8	–
